{
  "source": "patent US7754720B2",
  "about": "“Pyridazine compound and use thereof” (priority 2006, dated 2010)",
  "key": {"in vitro [1]": {"assay": "in vitro", "settings": "human", "experimental": "(§1) Compound (1) was evaluated for its cytotoxicity in a variety of cell types including HCV replicon-containing cell lines (Huh-7, SL3 and MH4) and non-replicon-containing cell lines (HepG2, MT4), using a CellTiter-Glo Luminescence Cell Viability assay (Promega)."}, "[2]": {"assay": "Cytotoxicity, CellTiter-Glo Luminescence Cell Viability assay, MH4", "settings": "mouse, MH4 cells (HCV replicon-containing)", "experimental": "as §1"}, "HCV replicon cells": {"system": "HCV replicon cells", "assay": "In vitro combination study with IFN-α in replicon cells (MacSynergy)", "type": "cell-based, hepatitis C virus", "settings": "MacSynergy analysis", "experimental": "Pegylated interteron-α (PEG-IFN-α), in combination with ribavirin, represents the current standard of care for HCV-infected patients. In vitro combination studies of compound (1) and IFN-α were performed in replicon cells. Data was analyzed using the MacSynergy template developed by Prichard and Shipman."}, "[3]": {"system": "HCV genotype 1b (Con-1/lucneo) replicon", "assay": "microbe, parasite or virus in culture", "type": "cell-based", "settings": "Hepatitis C virus", "experimental": "(§2) HCV genotype 1b (Con-1/lucneo) and 1a (H77/neo) replicon cells were incubated with serial dilutions of compound (1) 2′C-methyl adenosine (2′CMeA) or IFNα for 3 days in the absence or presence of 40 mg/mL human serum albumin (HSA)."}, "[4]": {"settings": "in vivo", "excerpt": "(§3) A randomized, double-blind, placebo controlled trial was designed to evaluate the safety/tolerability, phamacokinetics and antiviral activity of single (in Part A) and multiple (in Part B) doses of Compound (1) (oleic acid solution, above) in subjects chronically infected with HCV genotype 1 (GT-1) without decompensated cirrhosis.\n(§4) In completed Part A, five successive cohorts of 6 subjects were randomized (5:1) to receive single ascending doses of Compound 1 (40, 120, 240, 240-with food, or 480 mg) or placebo. In ongoing Part B, four successive cohorts of 12 subjects are randomized (10:2) to receive multiple ascending doses of Compound 1 (40 mg BID, 120 mg BID, 240 mg QD, 240 mg BID) or placebo, over 8 days."}, "[5]": {"assay": "Intrinsic and pH solubility profile", "type": "physicochemical"}, "[6]": {"system": "HCV 2a subgenomic replicon", "assay": "HCV genotype 2a subgenomic replicon in Huh-7 cells, NS3 protease activity by time-resolved fluorescence", "type": "cell-based, hepatitis C virus", "settings": "compared with genotypes 1a and 1b", "experimental": "(§5) The antiviral activity of compound (1) against HCV genotype 2a was tested in cells chronically infected with the genotype 2a virus as well as in cells replicating a subgenomic 2a replicon. Huh-7 cells containing chronically replicating HCV genotype 2a (J6/JFH-Rluc) virus or subgenomic replicons were cultured with compound (1) or 2′CMeA for 3 days in the absence of human serum albumin. After cultivation, the amount of luciferase in 2a-virus containing cells and HCV NS3 protease activity in the 2a replicon-containing cells was determined using Promega's luciferase assay and a novel time-resolved fluorescence assay, respectively."}, "HCV replicon": {"system": "HCV replicon", "assay": "Anti-HCV replicon activity compared with prior art compound of formula (4)", "type": "cell-based, hepatitis C virus", "excerpt": "The anti-HCV replicon activity of compound (1) was compared to that of a prior art (WO 05/063744) compound, the compound of formula (4)"}, "in vitro [7]": {"assay": "in vitro", "settings": "human", "experimental": "as §1", "remark": "listed apart in the source"}, "[8]": {"assay": "Cytotoxicity, CellTiter-Glo Luminescence Cell Viability assay, Huh-7 lucneo", "settings": "human, Huh-7 lucneo cells (HCV replicon-containing)", "experimental": "as §1"}, "[9]": {"system": "HCV genotype 1a (H77/neo) replicon", "assay": "HCV genotype 1a (H77/neo) replicon, quantitative real-time PCR assay", "type": "cell-based", "settings": "Hepatitis C virus, 72 h, 3 days", "experimental": "as §2"}, "[10]": {"assay": "Phase-1 first-in-human trial, pharmacokinetics", "settings": "in vivo", "excerpt": "as §3, §4"}, "[11]": {"system": "HCV genotype 2a (J6/JFH-Rluc) virus", "assay": "Huh-7 cells chronically infected with HCV genotype 2a reporter virus, luciferase assay", "type": "cell-based", "settings": "Hepatitis C virus, Huh-7, 72 h, read-out: EC50, HCV-2a chronically infected cell culture model", "experimental": "as §5"}, "[12]": {"assay": "Cytotoxicity, CellTiter-Glo Luminescence Cell Viability assay, SL3", "settings": "human, SL3 cells (HCV replicon-containing)", "experimental": "as §1"}, "physchem": {"assay": "physchem", "type": "physicochemical", "settings": "pH 6.4, fassif"}, "log P": {"assay": "log P", "type": "physicochemical", "settings": "product of example 1b"}, "pKa": {"assay": "pKa", "type": "physicochemical", "settings": "product of example 1b"}},
  "note": "Where two headings read alike, the source gives them in different places.",
  "data": [
    {"smiles": "Fc1ccccc1-c1nc2ccn(Cc3ccc(-c4ccc(C(F)(F)F)cc4C(F)(F)F)nn3)cc-2n1", "note": "[Compound (1), 5-({6-[2,4-bis(trifluoromethyl)phenyl]pyridazin-3-yl}methyl)-2-(2-fluorophenyl)-5H-imidazo[4,5-c]pyridine]", "values": [
      {"measurement": "CC50", "setting": "in vitro [1]", "value": "> 50", "unit": "µM"},
      {"measurement": "CC50", "setting": "[2]", "value": "> 50", "unit": "µM"},
      {"measurement": "interaction with IFN-α in combination", "setting": "HCV replicon cells", "value": "additive interaction"},
      {"measurement": "EC50", "setting": "[3]; 72 h, read-out: EC50 HCV 1b-lucneo 40 mg/mL HSA, 3 days, presence of 40 mg/mL human serum albumin", "value": 11, "unit": "nM"},
      {"measurement": "EC50", "setting": "[3]; 72 h, 3 days, absence of human serum albumin, read-out: EC50 HCV 1b-lucneo (subgenomic replicon)", "value": 0.6, "unit": "nM"},
      {"measurement": "EC50", "setting": "[3]; Huh-7, read-out: EC50, Huh-7 cells replicating an HCV-1b subgenomic replicon", "value": 0.6, "unit": "nM"},
      {"measurement": "EC50", "setting": "[3]; read-out: EC50 in HCV-1b and HCV-1a replicons", "value": "0.62 to 3.6", "unit": "nM"},
      {"measurement": "Grade 3 or 4 treatment emergent laboratory abnormalities", "setting": "[4]; human", "value": "no Grade 3 or 4 treatment emergent laboratory abnormalities"},
      {"measurement": "most common adverse event", "setting": "[4]", "value": "headache"},
      {"measurement": "serious or treatment-limiting adverse events", "setting": "[4]", "value": "no serious or treatment-limiting adverse events"},
      {"measurement": "severity of adverse events", "setting": "[4]", "value": "All AEs were mild in severity, with the exception of one moderate headache"},
      {"measurement": "tolerability of single doses", "setting": "[4]", "value": "well tolerated"},
      {"measurement": "pH solubility profile at pH 7.3", "setting": "[5]; geometric mean (3 lots), pH 7.3", "value": 0.7, "unit": "micrograms/ml"},
      {"measurement": "solubility", "setting": "[5]; product of example 1b", "value": 0.7, "unit": "µg/mL"},
      {"measurement": "activity against genotype 2a", "setting": "[6]", "value": "substantially less active"},
      {"measurement": "potency relative to the compound of formula (4)", "setting": "HCV replicon", "value": "about 330 times"},
      {"measurement": "CC50", "setting": "in vitro [7]", "value": "> 50", "unit": "µM"},
      {"measurement": "CC50", "setting": "[8]", "value": "> 50", "unit": "µM"},
      {"measurement": "EC50", "setting": "[9]", "value": 3.6, "unit": "nM"},
      {"measurement": "half-life", "setting": "[10]", "value": "600 to 900", "unit": "min"},
      {"measurement": "increase of systemic exposure with a high fat meal", "setting": "[10]", "value": "approximately 2 fold"},
      {"measurement": "EC50", "setting": "[11]", "value": 2900, "unit": "nM"},
      {"measurement": "CC50", "setting": "[12]", "value": "> 50", "unit": "µM"},
      {"measurement": "solubility", "setting": "physchem", "value": 19.1, "unit": "µg/mL"},
      {"measurement": "logP", "setting": "log P", "value": 2.8},
      {"measurement": "pKa", "setting": "pKa", "value": 5.8}
    ]}
  ]
}
